These compounds were tested against human DHODH (Homo sapiens (Human), UniProt Q02127) (assay: DHODH Enzymatic Assay). Conditions: purified human DHODH, DCIP absorbance, end-point mode; read-out: hDHODH IC50.
Type: biochemical
Procedure: The following assay is referred to herein as the “DHODH Enzymatic Assay.” To detect DHODH enzyme activities, dichloroindophenol (DCIP) is added as the final electron acceptor in the assay. DCIP can accept electrons from the reduced coenzyme Q generated in the assay, or from dihydroorotate (DHO) via FMN by binding presumably to the ubiquinone pocket. DCIP solutions are blue, with an intense absorbance around 600 nm, but becomes colorless upon reduction (J. Biol. Chem. (1986) 261, 11386). The assay buffer contained […], pH 7.5, 150 mM NaCl, 0.5 mM EDTA, and 0.1% Triton X-100 in MilliQ water. Substrate consisting of 20 mM DHO, 5 mM CoQ6, and 1 mM DCIP in assay buffer, initiates the reaction. The assay is run in end-point mode by quenching the reaction with the potent DHODH inhibitor brequinar. Absorbance measurements were obtained using the BMG Phera Star plate-reading spectrophotomer. Purified human DHODH was purchased from Proteros (cat. No. PR-0044). Chemicals were purchased from Sigma-Aldrich, Teknova, and Avanti Polar Lipids. Liquid handling was performed using Labcyte Echo and Formulatrix Tempest.

Chain of human DHODH (Q02127 whole entry): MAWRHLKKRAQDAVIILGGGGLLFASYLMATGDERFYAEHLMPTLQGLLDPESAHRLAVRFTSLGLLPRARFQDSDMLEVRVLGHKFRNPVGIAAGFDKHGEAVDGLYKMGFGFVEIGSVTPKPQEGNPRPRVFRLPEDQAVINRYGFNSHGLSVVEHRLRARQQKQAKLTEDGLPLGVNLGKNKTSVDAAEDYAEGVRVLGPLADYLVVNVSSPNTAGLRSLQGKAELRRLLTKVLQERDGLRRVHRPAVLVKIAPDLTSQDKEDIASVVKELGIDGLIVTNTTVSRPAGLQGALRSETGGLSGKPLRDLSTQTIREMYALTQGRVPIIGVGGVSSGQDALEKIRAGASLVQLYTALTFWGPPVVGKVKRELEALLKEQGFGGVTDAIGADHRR

Row | Compound | IC50 [nM]
1 | CCC(C)c1cn(-c2c(F)cccc2Cl)c(=O)c2cc(F)c(-n3nc(CO)n(CC)c3=O)cc12 (racemic) [Example 48, Racemic-4-(sec-Butyl)-2-(2-chloro-6-fluorophenyl)-6-(4-ethyl-3-(hydroxymethyl)-5-oxo-4,5-dihydro-1H-1,2,4-triazol-1-yl)-7-fluoroisoquinolin-1(2H)-one] | 0.907
2 | CCn1c(CO)nn(-c2ccc3c(=O)n(-c4cccc(F)c4)cc(C(C)(C)O)c3c2)c1=O [Example 25, 6-(4-Ethyl-3-(hydroxymethyl)-5-oxo-4,5-dihydro-1H-1,2,4-triazol-1-yl)-2-(3-fluorophenyl)-4-(2-hydroxypropan-2-yl)isoquinolin-1(2H)-one] | 4260
3 | C=C(C)c1nn(-c2c(F)cccc2Cl)c(=O)c2cc(F)c(-n3nc(CO)n(CC)c3=O)cc12 [Example 27, 2-(2-Chloro-6-fluorophenyl)-6-(4-ethyl-3-(hydroxymethyl)-5-oxo-4,5-dihydro-1H-1,2,4-triazol-1-yl)-7-fluoro-4-(prop-1-en-2-yl)phthalazin-1(2H)-one] | 0.32
4 | C=C(C)c1nn(-c2c(F)cccc2Cl)c(=O)c2cc(-n3nc(CO)n(CC)c3=O)c(F)cc12 [Example 28, 2-(2-Chloro-6-fluorophenyl)-7-(4-ethyl-3-(hydroxymethyl)-5-oxo-4,5-dihydro-1H-1,2,4-triazol-1-yl)-6-fluoro-4-(prop-1-en-2-yl)phthalazin-1(2H)-one] | 5.03
5 | C=C(C)c1nn(-c2c(F)cccc2Cl)c(=O)c2cc(OC)c(-n3nc(CO)n(CC)c3=O)cc12 [Example 29, 2-(2-Chloro-6-fluorophenyl)-6-(4-ethyl-3-(hydroxymethyl)-5-oxo-4,5-dihydro-1H-1,2,4-triazol-1-yl)-7-methoxy-4-(prop-1-en-2-yl)phthalazin-1(2H)-one] | 82.6
6 | C=C(C)c1nn(-c2c(F)cccc2Cl)c(=O)c2cc(-n3nc(CO)n(CC)c3=O)c(OC)cc12 [Example 30, 2-(2-Chloro-6-fluorophenyl)-7-(4-ethyl-3-(hydroxymethyl)-5-oxo-4,5-dihydro-1H-1,2,4-triazol-1-yl)-6-methoxy-4-(prop-1-en-2-yl)phthalazin-1(2H)-one] | 3480

Other lines, results leading:

Row | IC50 [nM] | Compound
7 | 0.249 | C=C(C)c1cn(-c2cc(F)ccc2C)c(=O)c2cc(F)c(-n3nc(CO)n(CC)c3=O)cc12 [Example 82, 6-(4-Ethyl-3-(hydroxymethyl)-5-oxo-4,5-dihydro-1H-1,2,4-triazol-1-yl)-7-fluoro-2-(5-fluoro-2-methylphenyl)-4-(prop-1-en-2-yl)isoquinolin-1(2H)-one]
8 | 20.7 | CCn1c(CO)nn(-c2cc3c(C(C)C)cn(-c4cccnc4OC)c(=O)c3cc2F)c1=O [Example 90, 6-(4-Ethyl-3-(hydroxymethyl)-5-oxo-4,5-dihydro-1H-1,2,4-triazol-1-yl)-7-fluoro-4-isopropyl-2-(2-methoxypyridin-3-yl)isoquinolin-1(2H)-one]

What follows are compounds tested on MOLM-13 cells (human acute myeloid leukemia cells) (assay: MOLM-13 Cellular Assay). Conditions: Homo sapiens, MOLM-13, 72 h, 72 hours exposure, cell viability by CellTiter-Glo.
Type: cell-based
Procedure: The following assay is referred to herein as the “MOLM-13 Cellular Assay.” MOLM-13 cells (human acute myeloid leukemia cells) were obtained from DSMZ and were maintained in RPMI 1640+Glutamax+25 mM HEPES (Invitrogen, catalog number 72400) supplemented with 10% heat inactivated fetal bovine serum (FBS; Invitrogen, catalog number 16140). The day prior to assay set-up, cells were pelleted, resuspended in fresh media, counted, and cells were plated at 0.4×10^6 cell/mL in a T150 flask. On the day of the assay, cells were pelleted, resuspend in fresh media, counted and seeded at 5,000 cells/well in white opaque 96-well tissue culture treated microplates (Perkin Elmer, catalog number 6005680). Cells were exposed to different concentrations of test compounds at 37° C., 5% CO2 for 72 hours immediately after seeding. Cell viability was acquired on a Perkin Elmer Envision 2104 multilabel reader using the CellTiter-Glo assay (Promega) according to the manufacturer's instructions.

Row | IC50 [nM] | Compound
9 | 0.6 | CCC(C)c1cn(-c2c(F)cccc2Cl)c(=O)c2cc(F)c(-n3nc(CO)n(CC)c3=O)cc12 (racemic) [Example 48, Racemic-4-(sec-Butyl)-2-(2-chloro-6-fluorophenyl)-6-(4-ethyl-3-(hydroxymethyl)-5-oxo-4,5-dihydro-1H-1,2,4-triazol-1-yl)-7-fluoroisoquinolin-1(2H)-one]
10 | 0.3 | CCn1c(CO)nn(-c2cc3c(C(C)C)cn(-c4ccccc4Cl)c(=O)c3cc2F)c1=O [Example 117, 2-(2-Chlorophenyl)-6-(4-ethyl-3-(hydroxymethyl)-5-oxo-4,5-dihydro-1H-1,2,4-triazol-1-yl)-7-fluoro-4-isopropylisoquinolin-1(2H)-one]
11 | 2 | CCn1c(CO)nn(-c2nc3c(C(C)C)cn(-c4ccccc4C(F)(F)F)c(=O)c3cc2F)c1=O [Example 133, 2-(4-Ethyl-3-(hydroxymethyl)-5-oxo-4,5-dihydro-1H-1,2,4-triazol-1-yl)-3-fluoro-8-isopropyl-6-(2-(trifluoromethyl)phenyl)-1,6-naphthyridin-5(6H)-one]
12 | 8 | CCn1c(CO)nn(-c2cc3c(C(C)C)cn(-c4nc(C)ccc4C)c(=O)c3cc2F)c1=O [Example 134, 2-(3,6-Dimethylpyridin-2-yl)-6-(4-ethyl-3-(hydroxymethyl)-5-oxo-4,5-dihydro-1H-1,2,4-triazol-1-yl)-7-fluoro-4-isopropylisoquinolin-1(2H)-one]
